# Experimental data reported in ChEMBL document CHEMBL1255356, “The efflux pump inhibitor reserpine selects multidrug-resistant Streptococcus pneumoniae strains that overexpress the ABC transporters PatA and PatB” (2008).
# What was measured:
# [1] = test system: Streptococcus pneumoniae; assay: Inhibition of ABC efflux pump in Streptococcus pneumoniae M184 assessed as reduction in ciprofloxacin MIC at 80 ug/ml
# [2] = test system: Streptococcus pneumoniae; assay: Antibacterial activity against Streptococcus pneumoniae R6 by microdilution method; format: functional
# [3] = test system: Streptococcus pneumoniae; assay: Antibacterial activity against Streptococcus pneumoniae M230 by microdilution method; format: functional
# [4] = test system: Streptococcus pneumoniae; assay: Antibacterial activity against Streptococcus pneumoniae M4 by microdilution method; format: functional
# [5] = test system: Streptococcus pneumoniae; assay: Inhibition of ABC efflux pump in Streptococcus pneumoniae M169 assessed as increase in accumulation of ethidium bromide by fluorescence method after 10 mins relative to wild type; design: scale not given: the % may be the effect or the level left
# [6] = test system: Streptococcus pneumoniae; assay: Antibacterial activity against Streptococcus pneumoniae M240 by microdilution method; format: functional
# [7] = test system: Streptococcus pneumoniae; assay: Antibacterial activity against Streptococcus pneumoniae M184 by microdilution method; format: functional
# [8] = test system: Streptococcus pneumoniae; assay: Antibacterial activity against Streptococcus pneumoniae M168 by microdilution method; format: functional
# [9] = test system: Streptococcus pneumoniae; assay: Antibacterial activity against Streptococcus pneumoniae M233 by microdilution method; format: functional
# [10] = test system: Streptococcus pneumoniae; assay: Inhibition of ABC efflux pump in Streptococcus pneumoniae M184 assessed as increase in accumulation of ciprofloxacin by fluorometric uptake assay relative to wild type
# [11] = test system: Streptococcus pneumoniae; assay: Antibacterial activity against Streptococcus pneumoniae M231 by microdilution method; format: functional
# [12] = test system: Streptococcus pneumoniae; assay: Antibacterial activity against Streptococcus pneumoniae M169 by microdilution method; format: functional
# [13] = test system: Streptococcus pneumoniae; assay: Antibacterial activity against Streptococcus pneumoniae M246 by microdilution method; format: functional
# [14] = test system: Streptococcus pneumoniae; assay: Inhibition of ABC efflux pump in Streptococcus pneumoniae M4 assessed as increase in accumulation of ciprofloxacin by fluorometric uptake assay relative to wild type
# [15] = test system: Streptococcus pneumoniae; assay: Antibacterial activity against Streptococcus pneumoniae M186 by microdilution method; format: functional
# [16] = test system: Streptococcus pneumoniae; assay: Antibacterial activity against Streptococcus pneumoniae M236 by microdilution method; format: functional
# [17] = test system: Streptococcus pneumoniae; assay: Antibacterial activity against Streptococcus pneumoniae M234 by microdilution method; format: functional
# [18] = test system: Streptococcus pneumoniae; assay: Inhibition of ABC efflux pump in Streptococcus pneumoniae M168 assessed as increase in accumulation of ciprofloxacin by fluorometric uptake assay relative to sStreptococcus pneumoniae M4
# [19] = test system: Streptococcus pneumoniae; assay: Inhibition of ABC efflux pump in Streptococcus pneumoniae M169 assessed as increase in accumulation of ciprofloxacin by fluorometric uptake assay relative to wild type
# [20] = test system: Streptococcus pneumoniae; assay: Inhibition of ABC efflux pump in Streptococcus pneumoniae M186 assessed as reduction in ciprofloxacin MIC at 80 ug/ml
# [21] = test system: Streptococcus pneumoniae; assay: Inhibition of ABC efflux pump in Streptococcus pneumoniae M168 assessed as increase in accumulation of ethidium bromide by fluorescence method after 10 mins relative to Streptococcus pneumoniae M4; design: scale not given: the % may be the effect or the level left
# [22] = test system: Streptococcus pneumoniae; assay: Inhibition of ABC efflux pump in Streptococcus pneumoniae M184 assessed as increase in accumulation of ethidium bromide by fluorescence method after 10 mins relative to wild type; design: scale not given: the % may be the effect or the level left
# [23] = test system: Streptococcus pneumoniae; assay: Inhibition of ABC efflux pump in Streptococcus pneumoniae M169 assessed as reduction in ciprofloxacin MIC at 80 ug/ml
# [24] = test system: Streptococcus pneumoniae; assay: Antibacterial activity against Streptococcus pneumoniae M235 by microdilution method; format: functional
# [25] = test system: Streptococcus pneumoniae; assay: Inhibition of ABC efflux pump in Streptococcus pneumoniae M186 assessed as increase in accumulation of ciprofloxacin by fluorometric uptake assay relative to wild type
# [26] = test system: Streptococcus pneumoniae; assay: Inhibition of ABC efflux pump in Streptococcus pneumoniae M186 assessed as increase in accumulation of ethidium bromide by fluorescence method after 10 mins relative to wild type; design: scale not given: the % may be the effect or the level left
smiles,measurement,setting,value
COC(=O)[C@H]1[C@H]2C[C@@H]3c4[nH]c5cc(OC)ccc5c4CCN3C[C@H]2C[C@@H](OC(=O)c2cc(OC)c(OC)c(OC)c2)[C@@H]1OC [RESERPINE],Activity,[1],1 µg/mL
same,MIC,[2],64 µg/mL
same,MIC,[3],256 µg/mL
same,MIC,[4],64 µg/mL
same,Activity,[5],24.6%
same,MIC,[6],64 µg/mL
same,MIC,[7],256 µg/mL
same,MIC,[8],256 µg/mL
same,MIC,[9],256 µg/mL
same,fold change (FC),[10],2.8
same,MIC,[11],64 µg/mL
same,MIC,[12],256 µg/mL
same,MIC,[13],64 µg/mL
same,fold change (FC),[14],1.6
same,MIC,[15],256 µg/mL
same,MIC,[16],64 µg/mL
same,MIC,[17],64 µg/mL
same,fold change (FC),[18],2.3
same,fold change (FC),[19],2.9
same,Activity,[20],1 µg/mL
same,Activity,[21],27.7%
same,Activity,[22],26.7%
same,Activity,[23],1 µg/mL
same,MIC,[24],256 µg/mL
same,fold change (FC),[25],2.1
same,Activity,[26],32.9%
